Test results published in US20190169218A1, “AMPHIPATHIC COMPOUND HAVING NOVEL PENTA-SACCHARIDE HYDROPHILIC GROUP AND USE THEREOF” (Industry-University Cooperation Foundation Hanyang …, priority 2016, published 2019).

Key:
[1] = hydrodynamic radius of micelles by dynamic light scattering (DLS); type: physicochemical; settings: compound at 1.0 wt %
Outline: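 Micelle hydrodynamic radius (Rh) was measured by dynamic light scattering with each amphiphile at 1.0 wt %.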

[2] = target: T1, Salmonella typhimurium melibiose permease (MelB) (Salmonella typhimurium, UniProt P30878); experiment: MelB extraction efficiency and thermal stability by SDS-PAGE and western immunoblotting; settings: 1.5 wt %; for solubilized MelB remaining in solution: 90 minutes; for MelB extraction efficiency: 0° C., 90 minutes (similar results at 45° C.)
T1 construct: made in house; host or cells: DW2 cells (melB and lacZY), Salmonella typhimurium DW2; plasmid pK95AHB/WT MelBst/CH10
Protocol: The ability of PSAs or PSEs to extract (solubilize) MelBst (Salmonella typhimurium melibiose permease) proteins and stabilize the structures thereof was measured. MelB proteins were extracted using PSAs, PSEs or DDM, and the amount of the extracted proteins and structural stability thereof were quantitatively analyzed by SDS-PAGE and western immunoblotting. The protein extraction efficiency and thermally stabilizing ability of the amphipathic compounds were simultaneously evaluated by extracting MelB proteins at four temperatures (0, 45, 55 or 65° C.) for 90 minutes using the amphipathic compounds at a concentration of 1.5 wt %.
Specifically, according to the method described in the journal article (P. S. Chae, et al., Chemistry. 2013, 19, 15645-15651.) published by the present inventors, proteins (MelBst) were produced using a plasmid pK95AHB/WT MelBst/CH10 containing a gene construct encoding wild-type MelB having 10×His tags at the C-terminus and Salmonella typhimurium DW2 cells (melB and lacZY). According to the method described in the journal article (A. S. Ethayathulla et al., Nat. Commun. 2014, 5, 3009), cells were cultured and the cell membranes were obtained from the cultured cells. Protein analysis was performed using a Micro BCA kit (Thermo Scientific, Rockford, Ill.). To measure solubilization/stability, membrane samples (the final concentration of membrane proteins was 10 mg/mL) containing MelBst were mixed with a solubilization buffer solution (20 mM sodium phosphate, pH 7.5, 200 mM NaCl, 10% glycerol and 20 mM melibiose) containing DDM, PSAs (PSA-C11) or PSEs (PSE-C9, PSE-C11, PSE-C13) at a concentration of 1.5% (w/v). Extracts were incubated at four different temperatures (0, 45, 55 and 65° C.) for 90 minutes. Fractions were removed by ultracentrifugation at 355,590 g for 45 minutes using a Beckman Optima™ MAX ultracentrifuge equipped with a No. 4 TLA-100 rotor. 20 μg of proteins was separated using a 15% SDS-PAGE gel. Next, immunoblotting was performed using Penta-His-HRP antibodies (Qiagen, Germantown, Md.). After performing SDS-PAGE and immunoblotting, the amount of solubilized MelB was quantitated and expressed as a percentage of the amount of MelB measured in the control group.

[3] = critical micelle concentration (CMC) by hydrophobic fluorescent staining with diphenylhexatriene (DPH); type: physicochemical
Outline: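 CMC determined by hydrophobic fluorescent staining with diphenylhexatriene (DPH); micelle hydrodynamic radius measured separately by dynamic light scattering at 1.0 wt %, with DDM as reference detergent.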

T1 sequence (P30878 whole entry): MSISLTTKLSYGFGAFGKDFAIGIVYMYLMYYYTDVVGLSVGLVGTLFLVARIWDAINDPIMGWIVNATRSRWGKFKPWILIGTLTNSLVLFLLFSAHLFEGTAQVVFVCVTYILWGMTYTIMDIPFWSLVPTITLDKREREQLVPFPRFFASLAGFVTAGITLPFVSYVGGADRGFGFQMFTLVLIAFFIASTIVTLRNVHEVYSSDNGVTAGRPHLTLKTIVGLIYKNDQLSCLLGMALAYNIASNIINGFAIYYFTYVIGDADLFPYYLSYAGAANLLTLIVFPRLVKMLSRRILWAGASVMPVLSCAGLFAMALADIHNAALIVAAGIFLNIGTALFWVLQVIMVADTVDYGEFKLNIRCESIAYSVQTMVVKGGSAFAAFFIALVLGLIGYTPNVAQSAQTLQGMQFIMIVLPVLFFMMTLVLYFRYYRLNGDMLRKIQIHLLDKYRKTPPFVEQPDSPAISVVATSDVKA

Row | SMILES | Rh (nm), hydrodynamic radius of micelles [1] [nm] | solubilized MelB remaining in solution ([2]; 55° C.) | CMC [3] [mM] | CMC (wt %) [3] [wt %] | MelB extraction efficiency [2] | solubilized MelB remaining in solution ([2]; 65° C.)
1 | CCCCCCCCCCCCO[C@@H]1O[C@H](CO)[C@@H](O[C@H]2O[C@H](CO)[C@@H](O)[C@H](O)[C@H]2O)[C@H](O)[C@H]1O [DDM, n-dodecyl-β-D-maltopyranoside, reference compound] | 3.4 ± 0.03 | disappeared in the solution | ~0.17 | ~0.0087 |  | 
2 | CCCCCCCCCCCC(CCCCCCCCCCC)CO[C@@H]1OC(CO[C@@H]2OC(CO)[C@@H](O)C(O)C2O)[C@@H](O[C@@H]2OC(CO)[C@@H](O)C(O)C2O)C(O[C@@H]2OC(CO)[C@@H](O)C(O)C2O)C1O[C@@H]1OC(CO)[C@@H](O)C(O)C1O (stereo partly shown) [PSA-C11] | 3.28 ± 0.03 | remained dissolved in the solution | ~0.007 | ~0.0008 | extracted at an efficiency similar to the efficiency observed in the case of DDM | 
3 | CCCCCCCCCCCOCC(COCCCCCCCCCCC)O[C@@H]1OC(CO[C@@H]2OC(CO)[C@@H](O)C(O)C2O)[C@@H](O[C@@H]2OC(CO)[C@@H](O)C(O)C2O)C(O[C@@H]2OC(CO)[C@@H](O)C(O)C2O)C1O[C@@H]1OC(CO)[C@@H](O)C(O)C1O (stereo partly shown) [PSE-C11] | 3.46 ± 0.05 | remained dissolved in the solution | ~0.004 | ~0.0005 | extracted at an efficiency similar to the efficiency observed in the case of DDM | a small amount of dissolved MelB was observed
4 | CCCCCCCCCCCCCOCC(COCCCCCCCCCCCCC)O[C@@H]1OC(CO[C@@H]2OC(CO)[C@@H](O)C(O)C2O)[C@@H](O[C@@H]2OC(CO)[C@@H](O)C(O)C2O)C(O[C@@H]2OC(CO)[C@@H](O)C(O)C2O)C1O[C@@H]1OC(CO)[C@@H](O)C(O)C1O (stereo partly shown) [PSE-C13] | 14.1 ± 0.24 | remained dissolved in the solution | ~0.001 | ~0.0001 |  | 
5 | CCCCCCCCOCC(COCCCCCCCC)(COCCCCCCCC)CO[C@@H]1OC(CO[C@@H]2OC(CO)[C@@H](O)C(O)C2O)[C@@H](O[C@@H]2OC(CO)[C@@H](O)C(O)C2O)C(O[C@@H]2OC(CO)[C@@H](O)C(O)C2O)C1O[C@@H]1OC(CO)[C@@H](O)C(O)C1O (stereo partly shown) [TPS-E8] | 43.8 ± 16.3 |  | ~0.007 | ~0.0009 |  | 
